# Results taken from ChEMBL document CHEMBL3627627, “1,2,3-Triazole-based analogue of benznidazole displays remarkable activity against Trypanosoma cruzi” (Bioorg Med Chem, 2015).
# pIC50: −log10 of the molar value. Activity calls are given as the source filed them. No cut-off for these calls is given here.
# How the values were obtained:
# [1] = Cytotoxicity against C57BL/6 mouse spleen cells assessed as growth inhibition incubated for 24 hrs at 37 degC by propidium iodide stain based flow cytometry method; assay type: cell-based; details: for ED50: mouse, spleen, 24 h; for CC50 at 24 h: C57BL/6, mouse, spleen cells, read-out: ED50
# Trypanosoma cruzi [2] = assay: Antiparasitic activity against trypomastigote form of Trypanosoma cruzi Tulahuen-lacZ infected in LLC-MK2 ATCC cells assessed as parasite viability incubated for 4 days at 37 degC by chlorophenol beta-D-galactopyranose substrate based trypanocidal assay; assay type: functional, organism-based; details: LLC-MK2, 96 h
# [3] = Selectivity index, ratio of ED50 for C57BL/6 mouse spleen cells to IC50 for Trypanosoma cruzi Tulaheun; assay type: functional
# Trypanosoma cruzi [4] = assay: Antiparasitic activity against amastigote form of Trypanosoma cruzi Y strain infected in bone marrow macrophage cells assessed as amastigote viability incubated for 4 days by rapid panoptic stain based microscopy method; assay type: functional, organism-based; details: 96 h
# Trypanosoma cruzi [5] = assay: Antiparasitic activity against trypomastigote form of Trypanosoma cruzi Y strain assessed as parasite viability at 62.5 to 500 uM incubated for 24 hrs; assay type: functional, organism-based
# Trypanosoma cruzi [6] = assay: Potency index, ratio of IC50 of benznidazole for Trypanosoma cruzi Tulahuen to IC50 of test compound for Trypanosoma cruzi Tulahuen; assay type: functional
# Trypanosoma cruzi [7] = assay: Antiparasitic activity against trypomastigote form of Trypanosoma cruzi Y strain infected in Swiss mouse assessed as reduction in blood trypomastigote viability at 100 mg/kg/day, po starting on day 5 post-infection and followed for 10 consecutive days by light microscopy method; assay type: functional, organism-based
# [8] = Solubility of the compound in water; assay type: physicochemical; details: buffer
smiles,measurement,setting,value
COc1cc(OC)cc(-c2cn(CC(=O)NCc3ccccc3)nn2)c1,ED50,[1],Non-toxic
same,pIC50,Trypanosoma cruzi [2],< 4.00
Cc1ccc(-c2cn(CC(=O)NCc3ccccc3)nn2)cc1,ED50,[1],Non-toxic
same,pIC50,Trypanosoma cruzi [2],< 4.00
Cc1ccccc1-c1cn(CC(=O)NCc2ccccc2)nn1,Selectivity Index,[3],3.2
same,CC50 at 24 h,[1],940 µM
same,pIC50,Trypanosoma cruzi [2],< 4.00
COc1cccc(-c2cnnn2CC(=O)NCc2ccccc2)c1,CC50 at 24 h,[1],> 2000 µM
same,pIC50,Trypanosoma cruzi [2],4.30
same,pIC50,Trypanosoma cruzi [4],4.22
COc1ccc(-c2cn(CC(=O)NCc3ccccc3)nn2)cc1,ED50,[1],Non-toxic
same,pIC50,Trypanosoma cruzi [2],< 4.00
O=C(Cn1cc(CCCCO)nn1)NCc1ccccc1,CC50 at 24 h,[1],1700 µM
same,pIC50,Trypanosoma cruzi [2],< 3.40
O=C(Cn1cc(-c2ccccc2C(F)(F)F)nn1)NCc1ccccc1,ED50,[1],Non-toxic
same,pIC50,Trypanosoma cruzi [2],< 4.00
CC(C)(O)c1cn(CC(=O)NCc2ccccc2)nn1,CC50 at 24 h,[1],1600 µM
same,pIC50,Trypanosoma cruzi [2],< 3.40
O=C(Cn1nncc1-c1ccc([N+](=O)[O-])cc1)NCc1ccccc1,ED50,[1],Non-toxic
same,pIC50,Trypanosoma cruzi [2],< 4.00
same,Activity,Trypanosoma cruzi [5],inactive
O=C(Cn1nncc1CO)NCc1ccccc1,CC50 at 24 h,[1],> 2000 µM
same,pIC50,Trypanosoma cruzi [2],< 4.00
Nc1cccc(-c2cn(CC(=O)NCc3ccccc3)nn2)c1,Selectivity Index,[3],4.4
same,CC50 at 24 h,[1],800 µM
same,pIC50,Trypanosoma cruzi [2],< 4.00
CCC(O)Cc1cn(CC(=O)NCc2ccccc2)nn1 (stereo not drawn),CC50 at 24 h,[1],630 µM
same,pIC50,Trypanosoma cruzi [2],< 3.30
O=C(Cn1cc(C(=O)OCc2ccccc2)nn1)NCc1ccccc1,CC50 at 24 h,[1],720 µM
same,pIC50,Trypanosoma cruzi [2],< 3.30
O=C(O)CCCCc1cn(CC(=O)NCc2ccccc2)nn1,CC50 at 24 h,[1],1080 µM
same,pIC50,Trypanosoma cruzi [2],< 3.30
O=C(Cn1cc(-c2cccc([N+](=O)[O-])c2)nn1)NCc1ccccc1,CC50 at 24 h,[1],> 2000 µM
same,pIC50,Trypanosoma cruzi [2],< 4.00
same,Activity,Trypanosoma cruzi [5],inactive
O=C(Cn1cc(-c2ccc([N+](=O)[O-])cc2)nn1)NCc1ccccc1,Ratio IC50,Trypanosoma cruzi [6],5
same,Activity,Trypanosoma cruzi [7],Active
same,Selectivity Index,[3],114.3
same,CC50 at 24 h,[1],800 µM
same,pIC50,Trypanosoma cruzi [2],5.15
same,pIC50,Trypanosoma cruzi [4],4.39
same,solubility,[8],Insoluble
same,Activity,Trypanosoma cruzi [5],Active
O=C(Cn1cc(C(=O)O)nn1)NCc1ccccc1,ED50,[1],Non-toxic
same,pIC50,Trypanosoma cruzi [2],< 4.00
O=C(Cn1cc(-c2cccc(C(F)(F)F)c2)nn1)NCc1ccccc1,ED50,[1],Non-toxic
same,pIC50,Trypanosoma cruzi [2],< 4.00
COc1cccc(-c2cn(CC(=O)NCc3ccccc3)nn2)c1,Selectivity Index,[3],21
same,CC50 at 24 h,[1],840 µM
same,pIC50,Trypanosoma cruzi [2],4.40
same,pIC50,Trypanosoma cruzi [4],4.21
Nc1ccc(-c2cn(CC(=O)NCc3ccccc3)nn2)cc1,Selectivity Index,[3],7.7
same,CC50 at 24 h,[1],1240 µM
same,pIC50,Trypanosoma cruzi [2],< 4.00
O=C(Cn1cc(-c2ccccc2[N+](=O)[O-])nn1)NCc1ccccc1,ED50,[1],Non-toxic
same,pIC50,Trypanosoma cruzi [2],< 4.00
same,Activity,Trypanosoma cruzi [5],inactive
O=C(Cn1nncc1-c1cccc([N+](=O)[O-])c1)NCc1ccccc1,ED50,[1],Non-toxic
same,pIC50,Trypanosoma cruzi [2],4.07
same,Activity,Trypanosoma cruzi [5],inactive
CC(C)(C)OC(=O)NCc1cn(CC(=O)NCc2ccccc2)nn1,CC50 at 24 h,[1],> 2000 µM
same,pIC50,Trypanosoma cruzi [2],< 4.00
O=C(Cn1cc(CO)nn1)NCc1ccccc1,CC50 at 24 h,[1],490 µM
same,pIC50,Trypanosoma cruzi [2],< 3.30
O=C(O)CCc1cn(CC(=O)NCc2ccccc2)nn1,CC50 at 24 h,[1],1420 µM
same,pIC50,Trypanosoma cruzi [2],< 3.30
O=C(Cn1cc(-c2cccc(F)c2)nn1)NCc1ccccc1,ED50,[1],Non-toxic
same,pIC50,Trypanosoma cruzi [2],< 4.00
NCc1cn(CC(=O)NCc2ccccc2)nn1,CC50 at 24 h,[1],> 2000 µM
same,pIC50,Trypanosoma cruzi [2],< 3.30
O=C(Cn1ccnc1[N+](=O)[O-])NCc1ccccc1 [BENZNIDAZOLE],pIC50,Trypanosoma cruzi [2],4.47
same,pIC50,Trypanosoma cruzi [4],4.80
same,Activity,Trypanosoma cruzi [5],Active
